Experimental data published in ChEMBL document CHEMBL6074715, “Discovery of pyridine-based derivatives as FLT3 inhibitors for the treatment of acute myeloid leukemia” (Eur J Med Chem, 2025).
The source made the active and inactive calls. The rule behind the calls is not given here.

How the values were obtained:
[1] = Cmax in Sprague-Dawley rat at 5 mg/kg, iv measured upto 48 hrs by LC-MS/MS analysis; type: ADME, organism-based; conditions: in vivo
[2] = AUC (0 to infinity) in Sprague-Dawley rat at 5 mg/kg, iv measured upto 48 hrs by LC-MS/MS analysis; type: ADME, organism-based; conditions: in vivo
BaF3 = assay: Antiproliferative activity against mouse BaF3 cells harbouring TEL-VEGFR2 assessed as inhibition of cell growth measured after 72 hrs by Celltiter-glo luminescent cell viability assay; type: functional, cell-based; conditions: BaF3, 72 h
MOLM-14 = assay: Antiproliferative activity against human MOLM-14 cells harbouring FLT3-ITD assessed as inhibition of cell growth measured after 72 hrs by Celltiter-glo luminescent cell viability assay; type: functional, cell-based; conditions: MOLM-14, 72 h
K562 = assay: Antiproliferative activity against human K562 cells assessed as inhibition of cell growth measured after 72 hrs by Celltiter-glo luminescent cell viability assay; type: functional, cell-based; conditions: K562, 72 h
EBC-1 = assay: Antiproliferative activity against human EBC-1 cells assessed as inhibition of cell growth measured after 72 hrs by Celltiter-glo luminescent cell viability assay; type: functional, cell-based; conditions: EBC-1, 72 h
[3] = Antiproliferative activity against human PBMC cells assessed as inhibition of cell growth measured after 72 hrs by Celltiter-glo luminescent cell viability assay; type: toxicity, cell-based
[4] = target: Receptor-type tyrosine-protein kinase FLT3 (Homo sapiens) (UniProt P36888); assay: Inhibition of FLT3 phosphorylation in human MOLM-13 cells incubated for 2 hrs by Western blot analysis; type: cell-based; conditions: dose 0.04-5 µM
MOLM-13 [5] = assay: Induction of cell cycle arrest in human MOLM-13 cells assessed as accumulation of cells at S phase at 3 uM measured after 48 hrs by PI staining based flow cytometry analysis (reference value: 45.3%); type: functional
MOLM-13 [6] = assay: Effect on FLT3 level in human MOLM-13 cells at 0.04 to 5 nM measured after 2 hrs by Western blot analysis; type: functional, cell-based; conditions: dose 0.04-5 nM
MOLM-13 [7] = assay: Effect on STAT5 level in human MOLM-13 cells at 0.04 to 5 nM measured after 2 hrs by Western blot analysis; type: functional, cell-based; conditions: dose 0.04-5 nM
MOLM-13 [8] = assay: Induction of apoptosis in human MOLM-13 cells assessed as viable cells at 0.3 uM measured after 48 hrs by annexin-V and PI staining based flow cytometry analysis (reference value: 88.7%); type: functional; conditions: read-out: Activity
MOLM-13 [9] = assay: Induction of apoptosis in human MOLM-13 cells assessed as viable cells at 3 uM measured after 48 hrs by annexin-V and PI staining based flow cytometry analysis (reference value: 88.7%); type: functional; conditions: read-out: Activity
MOLM-13 [10] = assay: Induction of apoptosis in human MOLM-13 cells assessed as early apoptotic cells at 3 uM measured after 48 hrs by annexin-V and PI staining based flow cytometry analysis (reference value: 8.92%); type: functional
MOLM-13 [11] = assay: Induction of apoptosis in human MOLM-13 cells assessed as late apoptotic cells at 0.3 uM measured after 48 hrs by annexin-V and PI staining based flow cytometry analysis (reference value: 2.28%); type: functional
MOLM-13 [12] = assay: Induction of apoptosis in human MOLM-13 cells assessed as necrotic cells at 0.3 uM measured after 48 hrs by annexin-V and PI staining based flow cytometry analysis (reference value: 0.087%); type: functional
[13] = MRT (0 to t) in Sprague-Dawley rat at 5 mg/kg, iv measured upto 48 hrs by LC-MS/MS analysis; type: ADME, organism-based; conditions: in vivo
[14] = Clearance in Sprague-Dawley rat at 5 mg/kg, iv measured upto 48 hrs by LC-MS/MS analysis; type: ADME, organism-based; conditions: in vivo
[15] = Half life in Sprague-Dawley rat at 20 mg/kg, po measured upto 48 hrs by LC-MS/MS analysis; type: ADME, organism-based; conditions: in vivo
[16] = Cmax in Sprague-Dawley rat at 20 mg/kg, po measured upto 48 hrs by LC-MS/MS analysis; type: ADME, organism-based; conditions: in vivo
[17] = AUC (0 to t) in Sprague-Dawley rat at 20 mg/kg, po measured upto 48 hrs by LC-MS/MS analysis; type: ADME, organism-based; conditions: in vivo
[18] = AUC (0 to infinity) in Sprague-Dawley rat at 20 mg/kg, po measured upto 48 hrs by LC-MS/MS analysis; type: ADME, organism-based; conditions: in vivo
[19] = Toxicity in female NSG mouse assessed as effect on lung at 20 to 40 mg/kg, po measured after 21 days by H and E staining based analysis; type: organism-based; conditions: in vivo, 504 h, dose 20-40 mg/kg, time 21 day
[20] = target: Vascular endothelial growth factor receptor 1 (Homo sapiens, UniProt P17948); assay: Inhibition of human FLT assessed as residual activity at 1 uM by Eurofins kinase assay relative to control
[21] = target: Tyrosine-protein kinase BTK (Homo sapiens) (UniProt Q06187); assay: Inhibition of human BTK at 1 uM by Eurofins kinase assay
[22] = target: Serine/threonine-protein kinase B-raf (Homo sapiens) (UniProt P15056); assay: Inhibition of human BRAF at 1 uM by Eurofins kinase assay
[23] = test system: Mast/stem cell growth factor receptor Kit (Homo sapiens), P10721 [D816V]; assay: Inhibition of human c-kit D816V mutant at 1 uM by Eurofins kinase assay
Homo sapiens [24] = species on record: Homo sapiens; assay: Inhibition of human CDK1/cyclinB at 1 uM by Eurofins kinase assay
Homo sapiens [25] = species on record: Homo sapiens; assay: Inhibition of human cSRC at 1 uM by Eurofins kinase assay
[26] = target: Death-associated protein kinase 1 (Homo sapiens) (UniProt P53355); assay: Inhibition of human DAPK1 at 1 uM by Eurofins kinase assay
Homo sapiens [27] = species on record: Homo sapiens; assay: Inhibition of human DNA-PK at 1 uM by Eurofins kinase assay
[28] = target: Epidermal growth factor receptor (Homo sapiens) (UniProt P00533); assay: Inhibition of human EGFR at 1 uM by Eurofins kinase assay
[29] = target: Fibroblast growth factor receptor 1 (Homo sapiens) (UniProt P11362); assay: Inhibition of human FGFR1 at 1 uM by Eurofins kinase assay
[30] = target: Fibroblast growth factor receptor 4 (Homo sapiens) (UniProt P22455); assay: Inhibition of human FGFR4 at 1 uM by Eurofins kinase assay
[31] = target: Insulin-like growth factor 1 receptor (Homo sapiens) (UniProt P08069); assay: Inhibition of human IGF-1R at 1 uM by Eurofins kinase assay
[32] = target: Serine/threonine-protein kinase Nek2 (Homo sapiens) (UniProt P51955); assay: Inhibition of human NEK2 at 1 uM by Eurofins kinase assay
[33] = target: Platelet-derived growth factor receptor alpha (Homo sapiens) (UniProt P16234); assay: Inhibition of human PDGFRalpha at 1 uM by Eurofins kinase assay
[34] = target: Proto-oncogene tyrosine-protein kinase ROS (Homo sapiens) (UniProt P08922); assay: Inhibition of human Ros at 1 uM by Eurofins kinase assay
[35] = target: Angiopoietin-1 receptor (Homo sapiens) (UniProt Q02763); assay: Inhibition of human […] at 1 uM by Eurofins kinase assay
[36] = target: Wee1-like protein kinase (Homo sapiens) (UniProt P30291); assay: Inhibition of human Wee1 at 1 uM by Eurofins kinase assay
Chain of Wee1-like protein kinase (Homo sapiens) (P30291 whole entry, looked up): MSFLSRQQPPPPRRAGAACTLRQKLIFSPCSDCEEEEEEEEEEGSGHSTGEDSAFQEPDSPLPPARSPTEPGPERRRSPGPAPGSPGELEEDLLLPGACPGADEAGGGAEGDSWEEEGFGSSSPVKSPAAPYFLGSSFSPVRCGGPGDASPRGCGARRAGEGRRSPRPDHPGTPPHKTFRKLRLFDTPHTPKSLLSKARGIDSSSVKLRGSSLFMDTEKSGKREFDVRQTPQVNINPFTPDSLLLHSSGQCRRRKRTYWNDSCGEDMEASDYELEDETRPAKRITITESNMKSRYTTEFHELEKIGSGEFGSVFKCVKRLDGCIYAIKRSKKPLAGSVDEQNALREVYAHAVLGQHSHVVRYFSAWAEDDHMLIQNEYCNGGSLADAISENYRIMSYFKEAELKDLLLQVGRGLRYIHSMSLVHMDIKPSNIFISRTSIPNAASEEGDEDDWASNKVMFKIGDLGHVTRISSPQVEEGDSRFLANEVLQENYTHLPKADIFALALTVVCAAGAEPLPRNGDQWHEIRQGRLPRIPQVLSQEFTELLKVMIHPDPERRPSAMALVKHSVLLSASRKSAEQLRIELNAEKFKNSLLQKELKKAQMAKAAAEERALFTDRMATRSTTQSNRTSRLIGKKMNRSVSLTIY

Chain of Platelet-derived growth factor receptor alpha (Homo sapiens) (P16234 whole entry): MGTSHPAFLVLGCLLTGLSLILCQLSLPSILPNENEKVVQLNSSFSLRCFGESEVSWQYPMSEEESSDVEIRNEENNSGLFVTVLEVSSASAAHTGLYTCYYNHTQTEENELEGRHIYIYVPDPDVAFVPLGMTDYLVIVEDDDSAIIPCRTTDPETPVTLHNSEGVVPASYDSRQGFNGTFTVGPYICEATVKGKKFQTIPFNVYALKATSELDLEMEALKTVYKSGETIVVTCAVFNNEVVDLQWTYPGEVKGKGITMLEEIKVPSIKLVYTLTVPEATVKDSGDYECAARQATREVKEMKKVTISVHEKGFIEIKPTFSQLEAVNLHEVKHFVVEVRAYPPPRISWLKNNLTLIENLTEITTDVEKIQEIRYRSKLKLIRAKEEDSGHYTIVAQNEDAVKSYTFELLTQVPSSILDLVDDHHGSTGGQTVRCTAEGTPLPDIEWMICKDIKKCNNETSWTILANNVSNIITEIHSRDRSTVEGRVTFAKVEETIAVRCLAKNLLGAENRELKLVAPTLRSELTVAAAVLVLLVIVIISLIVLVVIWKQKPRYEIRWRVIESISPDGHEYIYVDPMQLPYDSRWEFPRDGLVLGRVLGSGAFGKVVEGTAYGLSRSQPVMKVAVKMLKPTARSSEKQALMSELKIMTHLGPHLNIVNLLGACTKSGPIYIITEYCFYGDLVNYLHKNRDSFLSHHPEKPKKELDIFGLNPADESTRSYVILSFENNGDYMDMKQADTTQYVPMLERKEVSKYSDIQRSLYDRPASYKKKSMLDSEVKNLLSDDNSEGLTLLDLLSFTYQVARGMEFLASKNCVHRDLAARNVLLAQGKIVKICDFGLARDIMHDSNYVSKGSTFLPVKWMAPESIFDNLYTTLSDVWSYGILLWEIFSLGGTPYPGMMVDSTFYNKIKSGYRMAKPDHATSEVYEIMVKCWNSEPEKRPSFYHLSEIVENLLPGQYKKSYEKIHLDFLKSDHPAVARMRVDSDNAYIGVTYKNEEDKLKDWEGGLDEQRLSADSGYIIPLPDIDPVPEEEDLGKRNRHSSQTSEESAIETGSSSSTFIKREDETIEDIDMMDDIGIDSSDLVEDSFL
Chain of Angiopoietin-1 receptor (Homo sapiens) (Q02763 whole entry): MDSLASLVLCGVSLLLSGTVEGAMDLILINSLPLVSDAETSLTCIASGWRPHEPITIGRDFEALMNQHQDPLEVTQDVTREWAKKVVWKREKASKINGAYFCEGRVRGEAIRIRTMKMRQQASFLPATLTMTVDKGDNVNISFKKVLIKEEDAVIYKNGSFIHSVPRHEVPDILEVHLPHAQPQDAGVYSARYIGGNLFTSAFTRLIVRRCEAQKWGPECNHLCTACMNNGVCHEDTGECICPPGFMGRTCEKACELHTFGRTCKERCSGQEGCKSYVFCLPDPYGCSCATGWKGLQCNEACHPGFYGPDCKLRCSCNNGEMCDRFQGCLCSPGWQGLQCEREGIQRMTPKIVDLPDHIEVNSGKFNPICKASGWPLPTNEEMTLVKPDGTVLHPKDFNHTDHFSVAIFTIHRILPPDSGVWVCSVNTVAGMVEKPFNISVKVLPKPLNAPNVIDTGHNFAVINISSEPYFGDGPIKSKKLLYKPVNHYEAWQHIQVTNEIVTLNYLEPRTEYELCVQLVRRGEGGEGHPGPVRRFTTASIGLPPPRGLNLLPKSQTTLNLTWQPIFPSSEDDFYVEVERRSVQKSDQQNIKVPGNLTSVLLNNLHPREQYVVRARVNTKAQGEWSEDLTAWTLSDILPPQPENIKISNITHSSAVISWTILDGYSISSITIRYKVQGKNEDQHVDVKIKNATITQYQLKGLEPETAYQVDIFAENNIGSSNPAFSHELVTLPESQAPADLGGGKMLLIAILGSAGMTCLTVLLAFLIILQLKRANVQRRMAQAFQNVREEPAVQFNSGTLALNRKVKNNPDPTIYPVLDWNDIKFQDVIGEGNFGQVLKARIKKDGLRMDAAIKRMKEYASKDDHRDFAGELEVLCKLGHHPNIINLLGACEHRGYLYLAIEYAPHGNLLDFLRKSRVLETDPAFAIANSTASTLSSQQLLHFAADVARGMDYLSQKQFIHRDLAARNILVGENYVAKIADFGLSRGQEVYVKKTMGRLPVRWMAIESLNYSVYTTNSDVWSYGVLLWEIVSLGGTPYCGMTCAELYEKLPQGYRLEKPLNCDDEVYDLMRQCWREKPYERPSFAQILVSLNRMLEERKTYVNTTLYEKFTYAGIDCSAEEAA
Chain of Fibroblast growth factor receptor 4 (Homo sapiens) (P22455 22-802 limits assumed): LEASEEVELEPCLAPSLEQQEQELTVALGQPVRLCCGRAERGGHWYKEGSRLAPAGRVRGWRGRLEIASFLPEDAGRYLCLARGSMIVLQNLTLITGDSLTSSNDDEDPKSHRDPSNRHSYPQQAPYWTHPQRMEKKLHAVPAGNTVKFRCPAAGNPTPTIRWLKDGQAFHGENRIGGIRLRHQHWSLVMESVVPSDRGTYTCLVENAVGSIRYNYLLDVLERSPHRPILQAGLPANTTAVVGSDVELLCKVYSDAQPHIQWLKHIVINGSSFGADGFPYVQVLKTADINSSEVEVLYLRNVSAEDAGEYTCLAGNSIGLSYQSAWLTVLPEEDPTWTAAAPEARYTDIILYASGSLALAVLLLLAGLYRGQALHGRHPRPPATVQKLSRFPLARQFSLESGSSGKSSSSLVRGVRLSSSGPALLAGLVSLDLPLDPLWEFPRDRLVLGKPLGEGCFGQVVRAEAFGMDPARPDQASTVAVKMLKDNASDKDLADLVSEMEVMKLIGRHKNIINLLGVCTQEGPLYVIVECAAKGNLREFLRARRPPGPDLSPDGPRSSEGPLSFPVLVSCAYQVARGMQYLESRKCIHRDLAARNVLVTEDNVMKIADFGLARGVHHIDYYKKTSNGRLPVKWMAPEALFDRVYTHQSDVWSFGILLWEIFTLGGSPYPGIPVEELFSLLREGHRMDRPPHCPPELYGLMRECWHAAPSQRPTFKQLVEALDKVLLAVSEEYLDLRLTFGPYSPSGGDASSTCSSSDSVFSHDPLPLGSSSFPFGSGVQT
Chain of Mast/stem cell growth factor receptor Kit (Homo sapiens), P10721 [D816V] (P10721 whole entry D816V): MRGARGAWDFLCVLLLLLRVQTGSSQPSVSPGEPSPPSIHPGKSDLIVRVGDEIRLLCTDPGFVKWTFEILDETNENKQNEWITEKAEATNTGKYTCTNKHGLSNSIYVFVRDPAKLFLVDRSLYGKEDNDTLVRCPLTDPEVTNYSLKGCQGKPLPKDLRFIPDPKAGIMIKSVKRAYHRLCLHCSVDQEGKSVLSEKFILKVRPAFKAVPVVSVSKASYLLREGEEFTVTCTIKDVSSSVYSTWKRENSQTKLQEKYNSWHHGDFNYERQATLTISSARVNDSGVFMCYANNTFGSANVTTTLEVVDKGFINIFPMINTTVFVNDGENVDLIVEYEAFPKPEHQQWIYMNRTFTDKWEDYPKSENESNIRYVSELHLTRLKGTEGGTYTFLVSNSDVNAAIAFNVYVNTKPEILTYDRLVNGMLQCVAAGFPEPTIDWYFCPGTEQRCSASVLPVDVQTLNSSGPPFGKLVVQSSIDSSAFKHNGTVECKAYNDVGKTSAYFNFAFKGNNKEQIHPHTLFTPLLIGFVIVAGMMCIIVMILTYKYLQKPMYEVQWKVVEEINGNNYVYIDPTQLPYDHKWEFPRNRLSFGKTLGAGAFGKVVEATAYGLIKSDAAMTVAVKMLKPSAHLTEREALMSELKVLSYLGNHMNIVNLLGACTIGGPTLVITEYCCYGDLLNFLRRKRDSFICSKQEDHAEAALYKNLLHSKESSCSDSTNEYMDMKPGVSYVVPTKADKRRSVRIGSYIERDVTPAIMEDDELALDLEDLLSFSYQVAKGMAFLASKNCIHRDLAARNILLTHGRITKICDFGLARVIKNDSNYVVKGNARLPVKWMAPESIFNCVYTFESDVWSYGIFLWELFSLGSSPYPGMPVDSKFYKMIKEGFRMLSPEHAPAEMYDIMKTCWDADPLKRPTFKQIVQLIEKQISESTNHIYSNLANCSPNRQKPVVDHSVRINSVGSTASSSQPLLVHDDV
Chain of Serine/threonine-protein kinase Nek2 (Homo sapiens) (P51955 whole entry): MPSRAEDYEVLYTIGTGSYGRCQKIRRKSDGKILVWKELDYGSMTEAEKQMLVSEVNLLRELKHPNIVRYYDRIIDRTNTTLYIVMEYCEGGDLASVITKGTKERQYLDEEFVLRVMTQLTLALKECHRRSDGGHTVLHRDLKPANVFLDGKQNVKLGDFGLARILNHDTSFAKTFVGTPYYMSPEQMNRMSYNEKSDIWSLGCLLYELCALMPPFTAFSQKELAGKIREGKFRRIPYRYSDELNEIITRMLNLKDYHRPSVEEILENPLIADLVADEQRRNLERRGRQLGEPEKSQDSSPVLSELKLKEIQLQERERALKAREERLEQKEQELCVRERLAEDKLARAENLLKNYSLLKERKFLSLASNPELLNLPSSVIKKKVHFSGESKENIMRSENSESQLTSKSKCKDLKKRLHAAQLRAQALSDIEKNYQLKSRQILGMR

## O=C(Nc1ccc(Oc2ccnc(NC(=O)N3CC(O)C3)c2)c(F)c1)c1cn(-c2cccnc2)nn1
[1]
  Cmax: 26900 ng/mL
[2]
  AUC(0-inf): 59400 ng·h/mL
BaF3
  IC50: 0.29 µM
MOLM-14
  IC50: 0.22 µM
K562
  IC50: 16.6 µM
EBC-1
  IC50: > 30 µM
[3]
  IC50 at 72 h: > 30 µM
[4]
  inhibition: Dose-dependent-effect
MOLM-13 [5]
  Activity: 4.87%
MOLM-13 [6]
  Activity: Not active; Compound Barely Affect Flt3 Level
MOLM-13 [7]
  Activity: Not active; Compound Barely Affect Stat5 Level
MOLM-13 [8]
  viability at 0.3 µM: 68.4%
MOLM-13 [9]
  viability at 3 µM: 50.6%
MOLM-13 [10]
  Activity: 38.4%
MOLM-13 [11]
  Activity: 6.54%
MOLM-13 [12]
  Activity: 0.063%
[13]
  MRT last at 48 h: 3.01 h
[14]
  clearance: 1.41 mL/min/kg
[15]
  half-life: 3.57 h
[16]
  Cmax: 8020 ng/mL
[17]
  AUC(0-t) at 48 h: 45600 ng·h/mL
[18]
  AUC(0-inf): 46100 ng·h/mL
[19]
  Activity: Non-toxic
[20]
  Activity: 22%
[21]
  inhibition: inactive
[22]
  inhibition: inactive
[23]
  inhibition: inactive
Homo sapiens [24]
  inhibition: inactive
Homo sapiens [25]
  inhibition: inactive
[26]
  inhibition: inactive
Homo sapiens [27]
  inhibition: inactive
[28]
  inhibition: inactive
[29]
  inhibition: inactive
[30]
  inhibition: inactive
[31]
  inhibition: inactive
[32]
  inhibition: inactive
[33]
  inhibition: inactive
[34]
  inhibition: inactive
[35]
  inhibition: inactive
[36]
  inhibition: inactive
